Results: ChEMBL document CHEMBL1125591, “Synthesis and antidopaminergic activity of some 3-(aminomethyl)tetralones as analogues of butyrophenone” (J Med Chem, 1991)
pKi: −log10 of the molar value.

What was measured:
[1] = species: Rattus norvegicus; assay: Compound was evaluated for the pA2 values against Norepinephrine (NE)-induced contraction of isolated rat vas deferens; type: functional; settings: read-out: pA2 (converted)
[2] = molecular target: D(1A) dopamine receptor (Rattus norvegicus, UniProt P18901); assay: Compound was evaluated for its affinity (pKi) to inhibit [3H]SCH-23390 binding to the dopamine receptor D1
[3] = species: Rattus norvegicus; assay: Compound was evaluated for the pA2 values against Dopamine (DA)-induced contraction of isolated rat vas deferens.; type: functional, organism-based; settings: read-out: pA2 (converted)
[4] = species: Mus musculus; assay: Compound was evaluated for the effective dose that causes lethality in aggregated mice (group toxicity antagonism); type: organism-based; settings: in vivo
[5] = molecular target: D(2) dopamine receptor (Rattus norvegicus, UniProt P61169); assay: Compound was evaluated for its affinity (pKi) to inhibit [3H]spiperone binding to the dopamine receptor D2
Sequence of D(2) dopamine receptor (P61169 whole entry): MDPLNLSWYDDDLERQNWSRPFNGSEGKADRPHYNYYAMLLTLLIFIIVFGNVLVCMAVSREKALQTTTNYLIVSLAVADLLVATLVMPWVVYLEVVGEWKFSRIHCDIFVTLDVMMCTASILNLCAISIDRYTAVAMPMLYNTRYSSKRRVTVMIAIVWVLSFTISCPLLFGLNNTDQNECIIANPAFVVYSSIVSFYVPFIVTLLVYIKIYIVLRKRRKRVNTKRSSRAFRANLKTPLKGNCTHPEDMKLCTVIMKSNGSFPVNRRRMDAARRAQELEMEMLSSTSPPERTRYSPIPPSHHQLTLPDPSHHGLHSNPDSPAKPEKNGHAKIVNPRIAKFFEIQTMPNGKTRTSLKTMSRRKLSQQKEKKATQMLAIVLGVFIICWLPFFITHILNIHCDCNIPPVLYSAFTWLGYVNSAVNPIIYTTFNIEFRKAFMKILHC

Sequence of D(1A) dopamine receptor (P18901 whole entry): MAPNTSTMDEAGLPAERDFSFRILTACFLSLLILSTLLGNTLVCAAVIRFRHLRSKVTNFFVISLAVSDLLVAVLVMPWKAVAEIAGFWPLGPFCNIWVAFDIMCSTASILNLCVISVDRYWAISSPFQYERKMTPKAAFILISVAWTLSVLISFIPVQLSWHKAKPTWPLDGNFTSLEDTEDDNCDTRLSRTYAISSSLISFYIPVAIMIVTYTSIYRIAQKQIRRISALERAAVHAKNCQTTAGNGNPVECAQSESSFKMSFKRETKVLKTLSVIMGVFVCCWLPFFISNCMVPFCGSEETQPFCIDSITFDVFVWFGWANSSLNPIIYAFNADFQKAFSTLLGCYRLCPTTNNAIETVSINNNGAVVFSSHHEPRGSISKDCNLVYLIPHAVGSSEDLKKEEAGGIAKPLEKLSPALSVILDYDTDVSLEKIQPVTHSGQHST

SMILES	Kb [1]	pKi [2]	Kb [3]	ED50 [4]	pKi [5]
O=C(CCCN1CCN(CC2CC(=O)c3ccccc3C2)CC1)c1ccc(F)cc1 (centres undefined)	178 nM	6.42	53.7 nM		
COc1ccccc1N1CCN(CC2CC(=O)c3ccccc3C2)CC1 (centres undefined)	174 nM	5.87	66.1 nM	0.349 mg/kg	
O=C(CCCN1CCN(CC2CC(=O)c3ccc(F)cc3C2)CC1)c1ccc(F)cc1 (centres undefined)		6.04		0.053 mg/kg	7.11
O=C1CC(CN2CCC(O)(c3ccccc3)CC2)Cc2ccccc21 (centres undefined)		6.13			7.13
O=C(CCCN1CCC(O)(c2ccc(Cl)cc2)CC1)c1ccc(F)cc1 [HALOPERIDOL]	102 nM		39.8 nM	0.02 mg/kg	
O=C1CC(CN2CCC(C(=O)c3ccc(F)cc3)CC2)Cc2ccccc21 (centres undefined)	83.2 nM	6.49	35.5 nM	0.055 mg/kg	
